{"source": "paper PMC10882157", "about": "(Diabetes, 2023)", "key": {"rat L6 myoblasts": {"system": "rat L6 myoblasts", "test": "Cellular oxygen consumption rate", "assay_type": "cell-based"}, "L6 myoblasts": {"system": "L6 myoblasts", "test": "Whole-cell current clamp recording of plasma membrane potential", "assay_type": "cell-based, rat", "conditions": "n = 8"}, "[1]": {"system": "ACC, pSer79-ACC, FAS, AMPK (pThr172)", "assay_type": "in vivo, mouse", "conditions": "mice fed SHD865 in the WD"}, "[2]": {"test": "Tissue concentrations at study termination", "assay_type": "in vivo, C57BL/6J mice", "conditions": "for concentration at 6 weeks: C57BL/6J, mouse, oral, 38 mg/kg per day (0.04% w/w in diet)"}, "C57BL/6J mouse tissue": {"system": "C57BL/6J mouse tissue", "test": "High-resolution respirometry", "assay_type": "in vivo, C57BL/6J mice", "conditions": "2 h after oral gavage of 30 mg/kg"}, "[3]": {"system": "medium-chain acyl-CoA dehydrogenase (MCAD)", "test": "Enzyme activity of MCAD in WD-fed mice", "assay_type": "in vivo, mouse", "conditions": "mice fed SHD865 in the WD"}, "L6 cells": {"system": "L6 cells", "test": "Mitochondrial stress test", "conditions": "drug 50 μmol/L, oligomycin 1 μmol/L"}, "C57BL/6J mice fed the WD": {"system": "C57BL/6J mice fed the WD", "test": "Western diet-induced adiposity reversal study", "assay_type": "in vivo"}, "mice [4]": {"system": "mice", "test": "Dose escalation tolerability study by oral gavage", "assay_type": "in vivo, mouse"}, "[5]": {"system": "β-hydroxy-acyl-CoA dehydrogenase (HAD)", "test": "Enzyme activity of HAD in WD-fed mice", "assay_type": "in vivo, mouse", "conditions": "mice fed SHD865 in the WD"}, "mice [6]": {"system": "mice", "test": "Whole-body OCR by indirect calorimetry", "assay_type": "in vivo, mouse", "conditions": "40 mg/kg oral gavage"}, "[7]": {"test": "Intrinsic clearance in human liver microsomes", "assay_type": "in vitro ADME"}, "[8]": {"test": "Rat pharmacokinetics and oral bioavailability", "assay_type": "in vivo, Sprague-Dawley rats", "conditions": "Sprague-Dawley, serum"}, "[9]": {"test": "Mouse pharmacokinetics and oral bioavailability", "assay_type": "in vivo, C57BL/6J mice", "conditions": "C57BL/6J, plasma, 10 mg/kg"}, "[10]": {"conditions": "second cohort, versus WD-fed controls, 4–5 h fasting"}}, "note": "Several values for one entry are separate records, joined by “and”; a condition that tells them apart may be missing. Identical values can stand only once."}
{"smiles": "N#CC(C#N)=NNc1ccc(OC(F)(F)F)cc1", "note": "[FCCP, carbonylcyanide p-(trifluoromethoxy)phenylhydrazone, reference compound]", "values": [{"measurement": "EC50", "setting": "rat L6 myoblasts; read-out: EC50 (OCR), average values, dose response 0.4 to 50 μmol/L", "value": 1200, "unit": "nM"}, {"measurement": "plasma membrane depolarization", "setting": "L6 myoblasts; 10 μmol/L", "value": "4.9 ± 1.0", "unit": "mV"}]}
{"smiles": "COc1nc2nc(C(F)(F)F)[nH]c2nc1Nc1ccc(OC(F)(F)F)cc1F", "note": "[SHD865, N-[2-fluoro-4-[trifluoromethoxy]phenyl]-5-methoxy-2-[trifluoromethyl]-1H-imidazo[4,5-b]pyrazine-6-amine]", "values": [{"measurement": "ACC expression versus WD-fed control mice", "setting": "[1]", "value": "lower"}, {"measurement": "FAS expression versus WD-fed control mice", "setting": "[1]", "value": "lower"}, {"measurement": "Ser79 phosphorylation of ACC", "setting": "[1]", "value": "trend for increased Ser79 phosphorylation of ACC"}, {"measurement": "phosphorylation of AMPK-Thr172", "setting": "[1]", "value": "increased phosphorylation of AMPK-Thr172"}, {"measurement": "concentration at 6 weeks", "setting": "[2]; brown fat", "value": 18000, "unit": "ng/g"}, {"measurement": "concentration at 6 weeks", "setting": "[2]; gonadal fat", "value": 27000, "unit": "ng/g"}, {"measurement": "concentration at 6 weeks", "setting": "[2]; liver", "value": "14500 ng/g and ~34 µM"}, {"measurement": "steady-state tissue distribution", "setting": "[2]; study termination, 0.04% w/w in WD", "value": "primarily localized to adipose and liver tissue depots, with lesser exposure in quadriceps muscle, heart, and brain"}, {"measurement": "uncoupled respiration across concentration range", "setting": "rat L6 myoblasts", "value": "maintained uncoupled respiration at a stable rate across a large concentration range"}, {"measurement": "bioactive concentration range in vitro", "setting": "rat L6 myoblasts; Fig. 1B", "value": "> 10", "unit": "µmol/L"}, {"measurement": "increase of cellular OCR, as % of the maximal OCR induced by BAM15 and FCCP", "setting": "rat L6 myoblasts; dose response 0.4 to 50 μmol/L", "value": "~90", "unit": "%"}, {"measurement": "mitochondrial activity in liver, muscle, heart, white and brown fat", "setting": "C57BL/6J mouse tissue", "value": "only the liver had significantly increased mitochondrial activity"}, {"measurement": "MCAD activity", "setting": "[3]", "value": "no treatment had any effect"}, {"measurement": "mitochondrial respiration in the presence of oligomycin", "setting": "L6 cells", "value": "increase mitochondrial respiration in the presence of the ATP synthase inhibitor oligomycin"}, {"measurement": "spare respiratory capacity, % of BAM15-treated cells", "setting": "L6 cells", "value": "~90", "unit": "%"}, {"measurement": "fecal triglyceride levels compared with WD-fed mice", "setting": "C57BL/6J mice fed the WD; 0.04% w/w in WD", "value": "did not alter fecal triglyceride levels"}, {"measurement": "postprandial plasma cholesterol compared with pretreatment", "setting": "C57BL/6J mice fed the WD; 0.04% w/w in WD", "value": "significantly lowered"}, {"measurement": "postprandial plasma triglyceride compared with pretreatment", "setting": "C57BL/6J mice fed the WD; 0.04% w/w in WD", "value": "significantly lowered"}, {"measurement": "random-fed blood glucose compared with WD-fed controls", "setting": "C57BL/6J mice fed the WD; 0.04% w/w in WD", "value": "decrease"}, {"measurement": "random-fed insulin levels compared with WD-fed controls", "setting": "C57BL/6J mice fed the WD; 0.04% w/w in WD", "value": "decrease"}, {"measurement": "skeletal muscle triglyceride content", "setting": "C57BL/6J mice fed the WD; 0.04% w/w in WD", "value": "completely normalized"}, {"measurement": "body weight and body fat mass composition", "setting": "C57BL/6J mice fed the WD; 0.04% w/w in WD (∼38 mg/kg per day), first 2 weeks of treatment", "value": "recovered normal body weight and body fat mass composition similar to the lean chow-fed control mice"}, {"measurement": "WD-induced fat gain (EchoMRI and terminal gonadal fat pad mass)", "setting": "C57BL/6J mice fed the WD; 0.04% w/w in WD, 6 weeks", "value": "completely reversed the WD-induced fat gain"}, {"measurement": "food intake", "setting": "C57BL/6J mice fed the WD; 0.04% w/w in WD, 6 weeks", "value": "without a decrease in food intake"}, {"measurement": "lipid droplet accumulation in liver tissue (hematoxylin and eosin staining)", "setting": "C57BL/6J mice fed the WD; 0.04% w/w in WD, 6 weeks", "value": "decreased lipid droplet accumulation"}, {"measurement": "liver cholesterol concentrations", "setting": "C57BL/6J mice fed the WD; 0.04% w/w in WD, 6 weeks", "value": "lower than WD-fed control mice and similar to chow-fed mice"}, {"measurement": "liver triglyceride levels", "setting": "C57BL/6J mice fed the WD; 0.04% w/w in WD, 6 weeks", "value": "between those of chow-fed and WD-fed mice without being statistically different from either group"}, {"measurement": "blood ALT levels", "setting": "C57BL/6J mice fed the WD; 0.04% w/w in WD, 6 weeks, both cohorts", "value": "did not raise ALT levels"}, {"measurement": "glucose tolerance (GTT at week 9)", "setting": "C57BL/6J mice fed the WD; 0.04% w/w in WD, after 5 weeks of treatment", "value": "completely reversed glucose intolerance"}, {"measurement": "insulin levels during GTT, lower than WD-fed controls", "setting": "C57BL/6J mice fed the WD; second cohort of mice", "value": "20–30%"}, {"measurement": "hepatic triglyceride production using poloxamer 407", "setting": "C57BL/6J mice fed the WD; [10]", "value": "neither experiment showed a phenotype"}, {"measurement": "triglyceride clearance by oral triglyceride tolerance test (OTTT)", "setting": "C57BL/6J mice fed the WD; [10]", "value": "neither experiment showed a phenotype"}, {"measurement": "adverse effects after acute oral bolus", "setting": "mice [4]; C57BL/6J mice, 1,000 mg/kg oral", "value": "no adverse effects"}, {"measurement": "behavioral signs of distress or ill thrift", "setting": "mice [4]; mice, oral gavage 300 and 1,000 mg/kg, 24-h observation", "value": "no behavioral signs of distress or ill thrift were observed"}, {"measurement": "effect on body (rectal) temperature", "setting": "mice [4]; mice, oral gavage 300 and 1,000 mg/kg, 24 h", "value": "no effect on body temperature was detected"}, {"measurement": "efficacious dose relative to dose level with no observed adverse effect", "setting": "mice [4]; ∼38 mg/kg per day in diet versus 1,000 mg/kg acute oral", "value": 27, "unit": "fold"}, {"measurement": "plasma membrane depolarization", "setting": "L6 myoblasts; 25 μmol/L", "value": "1.4 ± 0.4", "unit": "mV"}, {"measurement": "decrease of HAD activity versus WD-fed control", "setting": "[5]", "value": 12, "unit": "%"}, {"measurement": "time for respiration to return to normal", "setting": "mice [6]", "value": 4, "unit": "h"}, {"measurement": "increase in whole-body OCR compared with vehicle", "setting": "mice [6]; first hour after treatment", "value": "up to 26%"}, {"measurement": "microsomal CLint", "setting": "[7]", "value": "< 116", "unit": "µL/min/mg"}, {"measurement": "half-life", "setting": "[8]", "value": 1.7, "unit": "h"}, {"measurement": "Cmax", "setting": "[9]", "value": 9.1, "unit": "µM"}, {"measurement": "half-life", "setting": "[9]", "value": 1.7, "unit": "h"}]}
